What is called IC50 is the point on the concentration scale where inhibition reaches its midpoint.

Read-outs that look alike come from different tables or passages of the source.

In test [1] the target is T1, human cytoplasmic domain of IGF-1R (Homo sapiens, UniProt P08069).
T1 construct: The human cytoplasmic domain of IGF-1R was cloned by fusion with glutathione S-transferase (GST); made in house; host or cells: SF21 insect cells (baculovirus, pFastBac-GST)
The test is described as follows: Kinase IGF-1R test: inhibition of autophosphorylation of the enzyme (HTRF). Format: biochemical. The note with it: ATP 120 μM. How it is done:
A) Experimental Protocol for the Kinase IGF-1R Test:
The inhibitory activity of the compounds on IGF1R is determined by measuring the inhibition of autophosphorylation of the enzyme using a time-resolved fluorescence test (HTRF). The human cytoplasmic domain of IGF-1R was cloned by fusion with glutathione S-transferase (GST) in the baculovirus expression vector pFastBac-GST. The protein is expressed in the SF21 cells and purified to about 80% homogeneity. For the enzymatic test, the test compound at 10 mM dissolved in DMSO is diluted in ⅓ steps in a 50 mM Hepes, pH 7.5, 5 mM MnCl2, 50 mM NaCl, 3% Glycerol, 0.025% Tween 20 buffer. To measure the inhibition, the successive dilutions of the compound are preincubated for 30 minutes and 90 minutes in the presence of 5 nM of enzyme, the final DMSO concentration not exceeding 1%. The enzymatic reaction is initiated to have a final ATP concentration of 120 μM, and is stopped after 5 minutes by addition of 100 mM Hepes, pH 7.0 buffer containing 0.4 M of potassium fluoride, 133 mM EDTA, 0.1% BSA, the XL665-labelled antibody anti-GST and the anti-phosphotyrosine antibody conjugated to europium cryptate Eu—K (Cis-Bio Int.). The characteristics of the two fluorophores, XL-665 and Eu—K, are available in G. Mathis et al., Anticancer Research, 1997, 17, pages 3011-3014. The energy transfer between the excited europium cryptate to the acceptor XL665 is proportional to the degree of autophosphorylation of IGF-1R. The specific long-lasting signal of XL-665 is measured in a GENios Pro TECAN plate counter. The inhibition of autophosphorylation of IGF-1R at time 30 minutes and 90 minutes with the test compounds of the invention is calculated relative to a 1% in DMSO control, whose activity is measured in the absence of compound. The curve representing the percentage of inhibition as a function of the log of the concentration is established to determine the concentration corresponding to 50% inhibition (IC50),
Background: TR-FRET usually uses a lanthanide donor and a delayed reading to cut background.

Another test has as its system MEF-IGF1R cells. The test can be described thus: Proliferation/viability of MEF-IGF1R (Thymidine [14C] incorporation). In kind it is cell-based. The note with it: rhIGF1 100 ng/mL, incubation 72 hours, read-out: Test C IC50. How it is done: C) Measurement of the Proliferation/Viability of MEF-IGF1R
Cell culture: the MEF-IGF1R cells (stable clone of cells transfected with the receptor hIGF-1R) are cultured at 37° C. under 5% CO2 in EMEM medium containing 10% FCS.
Test procedure: the cells are seeded at 5000 cells per well in 96-well Cytostar plates (Amersham) with 0.2 mL of EMEM culture medium at 37° C. for 18 hours. The cells are then washed twice with EMEM medium and left to culture without serum for 24 hours. The compounds are then added at various concentrations in the presence of rhIGF1 (100 ng/mL) and 0.1 μCi of Thymidine [^14C] (specific activity ˜50 mCi/mmol) to give 0.2 mL of volume per well. After incubation for 72 hours in the presence of the compound, at 37° C. under 5% CO2, the incorporation of Thymidine [^14C] is measured by counting the radioactivity on a Microbeta trilux counter (Perkin-Elmer). The IC50 is determined from 10 increasing concentrations of the compound.
(§1) (i) The tests are performed in duplicate and the mean of the two tests is calculated.
(§2) (ii) The value of the signal of the maximum response is calculated from the positive control: cells stimulated with IGF1 without compound.
(§3) (iii) Value of the signal of the minimum response is calculated from the negative control: cells not stimulated with IGF1 without compound.
(§4) (iv) By using these values as maximum (100%) and minimum (0%), respectively, the data were normalized so as to give a percentage of the maximum response.
(§5) (v) A curve of dose response is plotted and the IC50 (the concentration of which the compound induces a 50% decrease in the signal) of the compound is calculated by non-linear regression analysis.

For another test, the target named is IGF-1R in MCF7 cells (Homo sapiens, UniProt P08069). The test is described as follows: Autophosphorylation of IGF-1R in MCF7 cells after stimulation with IGF-1 (ELISA). Conditions: MCF-7 cells, compound added one hour before stimulation with IGF1; read-out: Test B IC50. Also noted: endogenous in cells; host or cells: MCF-7 cells. Format: cell-based. Here is the method: B) Measurement of the Autophosphorylation of IGF-1R in MCF7 Cells after Stimulation with IGF-1
Chain of IGF-1R in MCF7 cells (P08069 31-1367): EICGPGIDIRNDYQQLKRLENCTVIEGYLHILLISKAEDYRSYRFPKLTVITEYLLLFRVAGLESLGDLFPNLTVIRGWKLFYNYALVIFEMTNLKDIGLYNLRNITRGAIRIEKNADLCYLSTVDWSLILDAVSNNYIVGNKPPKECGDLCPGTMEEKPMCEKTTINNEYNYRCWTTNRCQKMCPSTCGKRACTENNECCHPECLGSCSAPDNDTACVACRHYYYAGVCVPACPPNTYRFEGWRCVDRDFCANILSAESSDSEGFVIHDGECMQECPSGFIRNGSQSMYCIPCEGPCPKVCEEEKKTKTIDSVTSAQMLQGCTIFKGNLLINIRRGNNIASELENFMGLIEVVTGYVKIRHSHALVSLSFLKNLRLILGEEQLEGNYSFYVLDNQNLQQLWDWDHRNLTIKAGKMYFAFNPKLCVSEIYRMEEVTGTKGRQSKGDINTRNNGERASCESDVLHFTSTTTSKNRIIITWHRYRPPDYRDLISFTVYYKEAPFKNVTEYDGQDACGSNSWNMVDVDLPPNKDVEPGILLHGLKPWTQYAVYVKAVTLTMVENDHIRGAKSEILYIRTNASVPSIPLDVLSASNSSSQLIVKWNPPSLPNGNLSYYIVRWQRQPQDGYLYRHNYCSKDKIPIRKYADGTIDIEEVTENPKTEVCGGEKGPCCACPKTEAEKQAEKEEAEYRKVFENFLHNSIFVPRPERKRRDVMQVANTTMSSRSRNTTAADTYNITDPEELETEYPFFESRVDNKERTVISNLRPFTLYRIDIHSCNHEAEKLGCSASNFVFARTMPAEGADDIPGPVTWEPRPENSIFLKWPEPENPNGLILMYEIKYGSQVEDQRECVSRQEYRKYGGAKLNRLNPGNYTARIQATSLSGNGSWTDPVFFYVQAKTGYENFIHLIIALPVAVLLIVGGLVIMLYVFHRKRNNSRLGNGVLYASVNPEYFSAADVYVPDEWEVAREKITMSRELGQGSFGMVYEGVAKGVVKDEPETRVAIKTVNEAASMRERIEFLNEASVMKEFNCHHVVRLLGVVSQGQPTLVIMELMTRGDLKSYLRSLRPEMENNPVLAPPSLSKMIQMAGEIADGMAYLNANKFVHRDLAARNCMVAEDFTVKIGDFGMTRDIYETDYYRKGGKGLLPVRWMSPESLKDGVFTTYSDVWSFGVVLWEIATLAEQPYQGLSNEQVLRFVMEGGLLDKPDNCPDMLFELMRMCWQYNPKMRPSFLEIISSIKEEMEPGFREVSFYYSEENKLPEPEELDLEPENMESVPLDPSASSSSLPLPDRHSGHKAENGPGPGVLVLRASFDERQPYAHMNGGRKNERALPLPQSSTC
Cell Culturing and Execution of the Test:
The autophosphorylation of IGF1R in the IGF1-induced cells is evaluated by means of an ELISA technique (Enzyme Linked ImmunoSorbent Assay). The MCF-7 are seeded at 60 000 cells per well in 6-well plates and incubated at 37° C., 5% CO2 in medium containing 10% serum. After one night in 10% serum, the cells are deprived of serum for 24 hours. The compounds are added to the medium one hour before stimulation with IGF1. After 10 minutes of stimulation with IGF1, the cells are lysed with a buffer (Hepes 50 mM pH 7.6, Triton X100 1%, orthovanadate 2 mM, protease inhibitor cocktail). The cell lysates are incubated on a 96-well plate precoated with an anti-IGF1R antibody, followed by incubation with an anti-phosphotyrosine antibody coupled to the enzyme peroxidase. The level of peroxidase activity (measured by OD with a luminescent substrate) reflects the phosphorylation status of the receptor.
as §1, §2, §3, §4, §5
In general terms: ELISA stands for enzyme-linked immunosorbent assay.

Where [2] appears, read: preincubation 30 minutes with 5 nM enzyme, read-out: Test A 30′ IC50.
Setting [3] is: preincubation 90 minutes with 5 nM enzyme, read-out: Test A 90′ IC50.

T1 sequence (P08069 960-1367 limits assumed): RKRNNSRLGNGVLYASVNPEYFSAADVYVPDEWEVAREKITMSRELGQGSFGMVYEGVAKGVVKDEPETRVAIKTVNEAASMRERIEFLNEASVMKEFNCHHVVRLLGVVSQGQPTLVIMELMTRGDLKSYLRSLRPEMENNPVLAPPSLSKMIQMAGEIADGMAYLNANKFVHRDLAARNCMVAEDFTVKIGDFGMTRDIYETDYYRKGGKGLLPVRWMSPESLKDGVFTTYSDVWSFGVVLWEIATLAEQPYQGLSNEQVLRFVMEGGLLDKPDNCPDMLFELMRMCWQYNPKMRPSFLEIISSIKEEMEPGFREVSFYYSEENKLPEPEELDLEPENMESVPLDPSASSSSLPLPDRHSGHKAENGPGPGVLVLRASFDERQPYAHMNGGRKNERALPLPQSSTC

Consider `CCOC(=O)Nc1cc(CN2C(=O)N(c3ccc(SC(F)(F)F)cc3)C(=O)C2(C)C)ccn1` [Example 18 Stage a), ethyl {4-[(5,5-dimethyl-2,4-dioxo-3-{4-[(trifluoromethyl)thio]phenyl}imidazolidin-1-yl)methyl]pyridin-2-yl}carbamate], for which the IC50 (in test [1] (setting [2]); in test [1] (setting [3]); in the test with MEF-IGF1R cells; at IGF-1R in MCF7 cells) was 0.01 to 0.1 µM each time.
Consider `CC1(C)C(=O)N(c2ccc(SC(F)(F)F)cc2)C(=O)N1Cc1ccnc(NC(=O)NCCCN2CCCC2)c1` [Example 18, 1-{4-[(5,5-dimethyl-2,4-dioxo-3-{4-[(trifluoro-methyl)thio]phenyl}imidazolidin-1-yl)methyl]pyridin-2-yl}-3-(3-pyrrolidin-1-ylpropyl)urea], for which the IC50 was 0.01 to 0.1 µM in test [1] (setting [2]), 0.01 to 0.1 µM in test [1] (setting [3]), more than 0.1 µM with MEF-IGF1R cells and 0.01 to 0.1 µM at IGF-1R in MCF7 cells.
On to `CC1(C)C(=O)N(c2ccc(SC(F)(F)F)cc2)C(=O)N1Cc1ccnc(NC(=O)NC2CCCC2)c1` [Example 19, 1-cyclopentyl-3-{4-[(5,5-dimethyl-2,4-dioxo-3-{4-[(trifluoromethyl)thio]phenyl}imidazolidin-1-yl)methyl]pyridin-2-yl}urea], for which the IC50 is 0.01 to 0.1 µM in test [1] (setting [2]), 0.01 to 0.1 µM in test [1] (setting [3]), 0.01 to 0.1 µM in the test on MEF-IGF1R cells and less than 0.01 µM on IGF-1R in MCF7 cells.
`CC1(C)C(=O)N(c2ccc(SC(F)(F)F)cc2)C(=O)N1Cc1ccnc(NC(=O)NCCN2CCCC2)c1` [Example 20, 1-{4-[(5,5-dimethyl-2,4-dioxo-3-{4-[(trifluoro-methyl)thio]phenyl}imidazolidin-1-yl)methyl]pyridin-2-yl}-3-(2-pyrrolidin-1-ylethyl)urea]: the concentration for half-maximal inhibition (IC50) (in test [1] (setting [2]); in test [1] (setting [3]); in the test on MEF-IGF1R cells; at IGF-1R in MCF7 cells) was more than 0.1 µM each time.
Regarding `CC1(C)C(=O)N(c2ccc(SC(F)(F)F)cc2)C(=O)N1Cc1ccnc(NC(=O)NCCCCN2CCCC2)c1` [Example 21, 1-{4-[(5,5-dimethyl-2,4-dioxo-3-{4-[(trifluoro-methyl)thio]phenyl}imidazolidin-1-yl)methyl]pyridin-2-yl}-3-(4-pyrrolidin-1-ylbutyl)urea], the IC50 in test [1] (setting [2]) was 0.01 to 0.1 µM; in test [1] (setting [3]), 0.01 to 0.1 µM; with MEF-IGF1R cells, more than 0.1 µM; on IGF-1R in MCF7 cells, 0.01 to 0.1 µM.
On to `CC1(C)C(=O)N(c2ccc(SC(F)(F)F)cc2)C(=O)N1Cc1ccnc(NC(=O)NC2CC2)c1` [Example 22, 1-cyclopropyl-3-{4-[(5,5-dimethyl-2,4-dioxo-3-{4-[(trifluoromethyl)thio]phenyl}imidazolidin-1-yl)methyl]pyridin-2-yl}urea], for which the IC50 (in test [1] (setting [2]); in test [1] (setting [3]); in the test on MEF-IGF1R cells; at IGF-1R in MCF7 cells) was 0.01 to 0.1 µM throughout.
As to `CC1(C)C(=O)N(c2ccc(SC(F)(F)F)cc2)C(=O)N1Cc1ccnc(NC(=O)NC2CCC2)c1` [Example 23, 1-cyclobutyl-3-{4-[(5,5-dimethyl-2,4-dioxo-3-{4-[(trifluoromethyl)thio]phenyl}imidazolidin-1-yl)methyl]pyridin-2-yl}urea], the IC50 (in test [1] (setting [2]); in test [1] (setting [3]); with MEF-IGF1R cells; at IGF-1R in MCF7 cells) was 0.01 to 0.1 µM in each case.
`CC1(C)C(=O)N(c2ccc(SC(F)(F)F)cc2)C(=O)N1Cc1ccnc(NC(=O)N2CCC2)c1` [Example 27, N-{4-[(5,5-dimethyl-2,4-dioxo-3-{4-[(trifluoro-methyl)thio]phenyl}imidazolidin-1-yl)methyl]pyridin-2-yl}azetidine-1-carboxamide]: the IC50 is 0.01 to 0.1 µM in test [1] (setting [2]), 0.01 to 0.1 µM in test [1] (setting [3]), less than 0.01 µM in the test on MEF-IGF1R cells and 0.01 to 0.1 µM at IGF-1R in MCF7 cells.
Consider `CC1(C)C(=O)N(c2ccc(SC(F)(F)F)cc2)C(=O)N1Cc1ccnc(NC(=O)N2CCCC2)c1` [Example 28, N-{4-[(5,5-dimethyl-2,4-dioxo-3-{4-[(trifluoromethyl)thio]phenyl}imidazolidin-1-yl)methyl]pyridin-2-yl}pyrrolidine-1-carboxamide], for which the IC50 in test [1] (setting [2]) was 0.01 to 0.1 µM; in test [1] (setting [3]), 0.01 to 0.1 µM; with MEF-IGF1R cells, 0.01 to 0.1 µM; at IGF-1R in MCF7 cells, less than 0.01 µM.
Consider `CC1(C)C(=O)N(c2ccc(SC(F)(F)F)cc2)C(=O)N1Cc1ccnc(NC(=O)N2CCOCC2)c1` [Example 29, N-{4-[(5,5-dimethyl-2,4-dioxo-3-{4-[(trifluoro-methyl)thio]phenyl}imidazolidin-1-yl)methyl]pyridin-2-yl}morpholine-4-carboxamide], for which the IC50 (in test [1] (setting [2]); in test [1] (setting [3]); with MEF-IGF1R cells; at IGF-1R in MCF7 cells) was 0.01 to 0.1 µM each time.
Turning to `CN1CCN(C(=O)Nc2cc(CN3C(=O)N(c4ccc(SC(F)(F)F)cc4)C(=O)C3(C)C)ccn2)CC1` [Example 30, N-{4-[(5,5-dimethyl-2,4-dioxo-3-{4-[(trifluoro-methyl)thio]phenyl}imidazolidin-1-yl)methyl]pyridin-2-yl}-4-methylpiperazine-1-carboxamide], the IC50 was 0.01 to 0.1 µM in test [1] (setting [2]), less than 0.01 µM in test [1] (setting [3]), more than 0.1 µM with MEF-IGF1R cells and 0.01 to 0.1 µM on IGF-1R in MCF7 cells.
Turning to `CCN(C)C(=O)Nc1cc(CN2C(=O)N(c3ccc(SC(F)(F)F)cc3)C(=O)C2(C)C)ccn1` [Example 34, 3-{4-[(5,5-dimethyl-2,4-dioxo-3-{4-[(trifluoro-methyl)thio]phenyl}imidazolidin-1-yl)methyl]pyridin-2-yl}-1-ethyl-1-methylurea], the IC50 (in test [1] (setting [2]); in test [1] (setting [3]); in the test with MEF-IGF1R cells; on IGF-1R in MCF7 cells) was 0.01 to 0.1 µM in each case.
Consider `CCCN(C)C(=O)Nc1cc(CN2C(=O)N(c3ccc(SC(F)(F)F)cc3)C(=O)C2(C)C)ccn1` [Example 35, 3-{4-[(5,5-dimethyl-2,4-dioxo-3-{4-[(trifluoromethyl)thio]phenyl}imidazolidin-1-yl)methyl]pyridin-2-yl}-1-methyl-1-propylurea], for which the IC50 (in test [1] (setting [2]); in test [1] (setting [3]); in the test on MEF-IGF1R cells; on IGF-1R in MCF7 cells) was 0.01 to 0.1 µM each time.

(Values after US20090082329A1 (AVENTIS PHARMA S.A., priority 2006, published 2009).)
